Laboratory results published in PubChem BioAssay (NCI).
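All cell lines were grown in 96-well plates and treated with compound for 48 hours. Here, GI50 denotes the concentration required for 50% inhibition of growth. TGI: concentration producing complete growth inhibition.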

Tests used:
Assay in all cases: growth of human tumour cells (NCI), 48 h
786-0 renal = test system: 786-0 renal
A498 renal = test system: A498 renal
A549 NSCLC = test system: A549 NSCLC
ACHN renal = test system: ACHN renal
BT-549 breast = test system: BT-549 breast
CAKI-1 renal = test system: CAKI-1 renal
CCRF-CEM leukemia = test system: CCRF-CEM leukemia
COLO 205 colon = test system: COLO 205 colon
DU-145 prostate = test system: DU-145 prostate
EKVX NSCLC = test system: EKVX NSCLC
HCC-2998 colon = test system: HCC-2998 colon
HCT-116 colon = test system: HCT-116 colon
HCT-15 colon = test system: HCT-15 colon
HL-60(TB) leukemia = test system: HL-60(TB) leukemia
HOP-62 NSCLC = test system: HOP-62 NSCLC
HOP-92 NSCLC = test system: HOP-92 NSCLC
HS 578T breast = test system: HS 578T breast
HT29 colon = test system: HT29 colon
IGROV1 ovarian = test system: IGROV1 ovarian
K-562 leukemia = test system: K-562 leukemia
KM12 colon = test system: KM12 colon
LOX IMVI melanoma = test system: LOX IMVI melanoma
M14 melanoma = test system: M14 melanoma
MALME-3M melanoma = test system: MALME-3M melanoma
MCF7 breast = test system: MCF7 breast
MDA-MB-231 breast = test system: MDA-MB-231 breast
MDA-MB-435 = test system: MDA-MB-435
MOLT-4 leukemia = test system: MOLT-4 leukemia
NCI-H226 lung = test system: NCI-H226 lung
NCI-H23 lung = test system: NCI-H23 lung
NCI-H460 lung = test system: NCI-H460 lung
NCI-H522 lung = test system: NCI-H522 lung
NCI/ADR-RES ovarian = test system: NCI/ADR-RES ovarian
OVCAR-3 ovarian = test system: OVCAR-3 ovarian
OVCAR-4 ovarian = test system: OVCAR-4 ovarian
OVCAR-5 ovarian = test system: OVCAR-5 ovarian
OVCAR-8 ovarian = test system: OVCAR-8 ovarian
PC-3 prostate = test system: PC-3 prostate
RPMI-8226 leukemia = test system: RPMI-8226 leukemia
RXF 393 renal = test system: RXF 393 renal
SF-268 CNS = test system: SF-268 CNS
SF-295 CNS = test system: SF-295 CNS
SF-539 CNS = test system: SF-539 CNS
SK-MEL-2 melanoma = test system: SK-MEL-2 melanoma
SK-MEL-28 melanoma = test system: SK-MEL-28 melanoma
SK-MEL-5 melanoma = test system: SK-MEL-5 melanoma
SK-OV-3 ovarian = test system: SK-OV-3 ovarian
SN12C renal = test system: SN12C renal
SW-620 colon = test system: SW-620 colon
T-47D breast = test system: T-47D breast
TK-10 renal = test system: TK-10 renal
U251 CNS = test system: U251 CNS
UACC-257 melanoma = test system: UACC-257 melanoma
UACC-62 melanoma = test system: UACC-62 melanoma
UO-31 renal = test system: UO-31 renal

Compound: Nc1ccccc1C#C/C=C\C#Cc1ccc(F)cc1F
- GI50 (786-0 renal): 14.7 µM
- TGI (786-0 renal): 28.7 µM
- GI50 (A498 renal): 15.8 µM
- TGI (A498 renal): 31.9 µM
- GI50 (A549 NSCLC): 16.8 µM
- TGI (A549 NSCLC): 67.7 µM
- GI50 (ACHN renal): 16.6 µM
- TGI (ACHN renal): 32.2 µM
- GI50 (BT-549 breast): 12.1 µM
- TGI (BT-549 breast): 27.5 µM
- GI50 (CAKI-1 renal): 3.13 µM
- TGI (CAKI-1 renal): 14.7 µM
- GI50 (CCRF-CEM leukemia): 0.444 µM
- TGI (CCRF-CEM leukemia): 10.9 µM
- GI50 (COLO 205 colon): 29.5 µM
- TGI (COLO 205 colon): 82 µM
- GI50 (DU-145 prostate): 12.5 µM
- TGI (DU-145 prostate): 33.8 µM
- GI50 (EKVX NSCLC): 19.4 µM
- TGI (EKVX NSCLC): 57.8 µM
- GI50 (HCC-2998 colon): 2.57 µM
- TGI (HCC-2998 colon): 12.6 µM
- GI50 (HCT-116 colon): 15.4 µM
- TGI (HCT-116 colon): 31.4 µM
- GI50 (HCT-15 colon): 14.1 µM
- TGI (HCT-15 colon): 31.7 µM
- GI50 (HL-60(TB) leukemia): 21.8 µM
- TGI (HL-60(TB) leukemia): > 100 µM
- GI50 (HOP-62 NSCLC): 16 µM
- TGI (HOP-62 NSCLC): 30 µM
- GI50 (HOP-92 NSCLC): 18.3 µM
- TGI (HOP-92 NSCLC): 59.7 µM
- GI50 (HS 578T breast): 13.2 µM
- TGI (HS 578T breast): 30.5 µM
- GI50 (HT29 colon): 31.1 µM
- TGI (HT29 colon): > 100 µM
- GI50 (IGROV1 ovarian): 12.7 µM
- TGI (IGROV1 ovarian): 40.7 µM
- GI50 (K-562 leukemia): 4.98 µM
- TGI (K-562 leukemia): > 100 µM
- GI50 (KM12 colon): 4.17 µM
- TGI (KM12 colon): 19.6 µM
- GI50 (LOX IMVI melanoma): 6.41 µM
- TGI (LOX IMVI melanoma): 19.9 µM
- GI50 (M14 melanoma): 16.5 µM
- TGI (M14 melanoma): 32 µM
- GI50 (MALME-3M melanoma): 6.11 µM
- TGI (MALME-3M melanoma): 22.5 µM
- GI50 (MCF7 breast): 6.28 µM
- TGI (MCF7 breast): 38.5 µM
- GI50 (MDA-MB-231 breast): 15.1 µM
- TGI (MDA-MB-231 breast): 33.3 µM
- GI50 (MDA-MB-435): 2.38 µM
- TGI (MDA-MB-435): 6.19 µM
- GI50 (MOLT-4 leukemia): 3.05 µM
- TGI (MOLT-4 leukemia): > 100 µM
- GI50 (NCI-H226 lung): 17.3 µM
- TGI (NCI-H226 lung): 35.8 µM
- GI50 (NCI-H23 lung): 13.3 µM
- TGI (NCI-H23 lung): 32.2 µM
- GI50 (NCI-H460 lung): 12.9 µM
- TGI (NCI-H460 lung): 28.7 µM
- GI50 (NCI-H522 lung): 13.8 µM
- TGI (NCI-H522 lung): 35.2 µM
- GI50 (NCI/ADR-RES ovarian): 6.22 µM
- TGI (NCI/ADR-RES ovarian): 21.1 µM
- GI50 (OVCAR-3 ovarian): 6.2 µM
- TGI (OVCAR-3 ovarian): 21.4 µM
- GI50 (OVCAR-4 ovarian): 37.1 µM
- TGI (OVCAR-4 ovarian): > 100 µM
- GI50 (OVCAR-5 ovarian): 14.8 µM
- TGI (OVCAR-5 ovarian): 29.6 µM
- GI50 (OVCAR-8 ovarian): 25.2 µM
- TGI (OVCAR-8 ovarian): 84.3 µM
- GI50 (PC-3 prostate): 10.7 µM
- TGI (PC-3 prostate): 56.5 µM
- GI50 (RPMI-8226 leukemia): 1.36 µM
- TGI (RPMI-8226 leukemia): 34.3 µM
- GI50 (RXF 393 renal): 18.4 µM
- TGI (RXF 393 renal): 43.2 µM
- GI50 (SF-268 CNS): 5.95 µM
- TGI (SF-268 CNS): 25.4 µM
- GI50 (SF-295 CNS): 7.12 µM
- TGI (SF-295 CNS): 24.8 µM
- GI50 (SF-539 CNS): 7.22 µM
- TGI (SF-539 CNS): 22.4 µM
- GI50 (SK-MEL-2 melanoma): 23 µM
- TGI (SK-MEL-2 melanoma): 58.1 µM
- GI50 (SK-MEL-28 melanoma): 27 µM
- TGI (SK-MEL-28 melanoma): 90.1 µM
- GI50 (SK-MEL-5 melanoma): 9.69 µM
- TGI (SK-MEL-5 melanoma): 25.3 µM
- GI50 (SK-OV-3 ovarian): 27.4 µM
- TGI (SK-OV-3 ovarian): 66.7 µM
- GI50 (SN12C renal): 12.3 µM
- TGI (SN12C renal): 27.7 µM
- GI50 (SW-620 colon): 36.9 µM
- TGI (SW-620 colon): > 100 µM
- GI50 (T-47D breast): 26 µM
- TGI (T-47D breast): > 100 µM
- GI50 (TK-10 renal): 11.2 µM
- TGI (TK-10 renal): 30.4 µM
- GI50 (U251 CNS): 13.7 µM
- TGI (U251 CNS): 26.5 µM
- GI50 (UACC-257 melanoma): 19.5 µM
- TGI (UACC-257 melanoma): 50 µM
- GI50 (UACC-62 melanoma): 14.6 µM
- TGI (UACC-62 melanoma): 32.5 µM
- GI50 (UO-31 renal): 13.1 µM
- TGI (UO-31 renal): 33 µM
